Reference: PubChem BioAssay AID2060511 (Molecular Pharmacology Branch, DTP, NCI, 2025)

Test system: 422866-222-R5-J1-PDC spheroids with HUVEC/MSC, viability
Assay: Anticancer human tumor 422866-222-R5-J1-PDC patient-derived pancreatic adenocarcinoma cell line growth inhibition [GQUAD]
Conditions: for IC50: curve of first compound; for viability, T/C: stronger effect = lower value
Procedure, shortened: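 Viability of tumor cells grown as complex spheroids with endothelial and stromal cells, exposed to drug combinations. Top concentration at or near clinical Cmax (else 10 microM), diluted in half-log increments.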

[1] = second compound 0.0316 µM, first compound 0.0316 µM
[2] = second compound 0.0316 µM, first compound 0.1 µM
[3] = second compound 0.0316 µM, first compound 0.316 µM
[4] = second compound 0.0316 µM, first compound 1 µM
[5] = second compound 0.0316 µM, first compound 3.16 µM
[6] = second compound 0.0316 µM, first compound 10 µM
[7] = second compound 0.1 µM, first compound 0.0316 µM
[8] = second compound 0.1 µM, first compound 0.1 µM
[9] = second compound 0.1 µM, first compound 0.316 µM
[10] = second compound 0.1 µM, first compound 1 µM
[11] = second compound 0.1 µM, first compound 3.16 µM
[12] = second compound 0.1 µM, first compound 10 µM
[13] = second compound 0.316 µM, first compound 0.0316 µM
[14] = second compound 0.316 µM, first compound 0.1 µM
[15] = second compound 0.316 µM, first compound 0.316 µM
[16] = second compound 0.316 µM, first compound 1 µM
[17] = second compound 0.316 µM, first compound 3.16 µM
[18] = second compound 0.316 µM, first compound 10 µM
[19] = second compound 1 µM, first compound 0.0316 µM
[20] = second compound 1 µM, first compound 0.1 µM
[21] = second compound 1 µM, first compound 0.316 µM
[22] = second compound 1 µM, first compound 1 µM
[23] = second compound 1 µM, first compound 3.16 µM
[24] = second compound 1 µM, first compound 10 µM
[25] = second compound 3.16 µM, first compound 0.0316 µM
[26] = second compound 3.16 µM, first compound 0.1 µM
[27] = second compound 3.16 µM, first compound 0.316 µM
[28] = second compound 3.16 µM, first compound 1 µM
[29] = second compound 3.16 µM, first compound 3.16 µM
[30] = second compound 3.16 µM, first compound 10 µM
[31] = second compound 10 µM, first compound 0.0316 µM
[32] = second compound 10 µM, first compound 0.1 µM
[33] = second compound 10 µM, first compound 0.316 µM
[34] = second compound 10 µM, first compound 1 µM
[35] = second compound 10 µM, first compound 3.16 µM
[36] = second compound 10 µM, first compound 10 µM
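Also: spheroids exposed to compounds for seven days before reading.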
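For viability, T/C in this document: percent viability relative to DMSO vehicle control taken as 100%.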

C=CCn1c(=O)c2cnc(Nc3ccc(N4CCN(C)CC4)cc3)nc2n1-c1cccc(C(C)(C)O)n1 + Cc1[nH]c2ccc(F)cc2c1-c1nc2c3cccnc3c3ncccc3c2[nH]1
IC50 (second compound 0.0316 µM): > 10 µM
IC50 (second compound 0.1 µM): > 10 µM
IC50 (second compound 0.316 µM): > 10 µM
IC50 (second compound 1 µM): > 10 µM
IC50 (second compound 3.16 µM): > 10 µM
IC50 (second compound 10 µM): > 10 µM
viability, T/C [1]: 103%
viability, T/C [2]: 110%
viability, T/C [3]: 167%
viability, T/C [4]: 125%
viability, T/C [5]: 157%
viability, T/C [6]: 91.9%
viability, T/C [7]: 112%
viability, T/C [8]: 101%
viability, T/C [9]: 127%
viability, T/C [10]: 146%
viability, T/C [11]: 183%
viability, T/C [12]: 107%
viability, T/C [13]: 101%
viability, T/C [14]: 127%
viability, T/C [15]: 126%
viability, T/C [16]: 130%
viability, T/C [17]: 202%
viability, T/C [18]: 112%
viability, T/C [19]: 89.3%
viability, T/C [20]: 122%
viability, T/C [21]: 120%
viability, T/C [22]: 121%
viability, T/C [23]: 194%
viability, T/C [24]: 122%
viability, T/C [25]: 75.5%
viability, T/C [26]: 74.5%
viability, T/C [27]: 85.2%
viability, T/C [28]: 117%
viability, T/C [29]: 122%
viability, T/C [30]: 76.9%
viability, T/C [31]: 70.5%
viability, T/C [32]: 51.5%
viability, T/C [33]: 85.7%
viability, T/C [34]: 68.5%
viability, T/C [35]: 105%
viability, T/C [36]: 79.3%

CC(C)(O)C1CCC(Nc2ccc3ncc(-c4cccc(C(F)(F)F)c4)n3n2)CC1 (stereo not given) + Cc1[nH]c2ccc(F)cc2c1-c1nc2c3cccnc3c3ncccc3c2[nH]1
IC50 (second compound 0.0316 µM): 1.11 µM
IC50 (second compound 0.1 µM): 0.833 µM
IC50 (second compound 0.316 µM): 1.12 µM
IC50 (second compound 1 µM): 1.49 µM
IC50 (second compound 3.16 µM): 0.421 µM
IC50 (second compound 10 µM): 0.531 µM
viability, T/C [1]: 99.4%
viability, T/C [2]: 79.8%
viability, T/C [3]: 78.5%
viability, T/C [4]: 50.7%
viability, T/C [5]: 31.8%
viability, T/C [6]: 26.9%
viability, T/C [7]: 118%
viability, T/C [8]: 103%
viability, T/C [9]: 64.7%
viability, T/C [10]: 50.9%
viability, T/C [11]: 34.1%
viability, T/C [12]: 29.8%
viability, T/C [13]: 103%
viability, T/C [14]: 99.2%
viability, T/C [15]: 80.3%
viability, T/C [16]: 51.1%
viability, T/C [17]: 36.5%
viability, T/C [18]: 29.5%
viability, T/C [19]: 87.1%
viability, T/C [20]: 88.4%
viability, T/C [21]: 77.6%
viability, T/C [22]: 55.4%
viability, T/C [23]: 38.9%
viability, T/C [24]: 27.1%
viability, T/C [25]: 56%
viability, T/C [26]: 63.5%
viability, T/C [27]: 52.4%
viability, T/C [28]: 39.3%
viability, T/C [29]: 37.8%
viability, T/C [30]: 29%
viability, T/C [31]: 66.3%
viability, T/C [32]: 68.3%
viability, T/C [33]: 62%
viability, T/C [34]: 35.1%
viability, T/C [35]: 33.9%
viability, T/C [36]: 26%

COc1ncnc(C2CC2)c1-c1ncc2cnn(Cc3ccc(-c4nc(C(F)(F)F)cn4C(C)C)cc3)c2n1 + Cc1[nH]c2ccc(F)cc2c1-c1nc2c3cccnc3c3ncccc3c2[nH]1
IC50 (second compound 0.0316 µM): 8.04 µM
IC50 (second compound 0.1 µM): > 10 µM
IC50 (second compound 0.316 µM): > 10 µM
IC50 (second compound 1 µM): > 10 µM
IC50 (second compound 3.16 µM): > 10 µM
IC50 (second compound 10 µM): > 10 µM
viability, T/C [1]: 91.9%
viability, T/C [2]: 96.2%
viability, T/C [3]: 111%
viability, T/C [4]: 87.1%
viability, T/C [5]: 64.6%
viability, T/C [6]: 46.4%
viability, T/C [7]: 106%
viability, T/C [8]: 97.4%
viability, T/C [9]: 110%
viability, T/C [10]: 99.2%
viability, T/C [11]: 63.1%
viability, T/C [12]: 49.8%
viability, T/C [13]: 93%
viability, T/C [14]: 116%
viability, T/C [15]: 106%
viability, T/C [16]: 90.1%
viability, T/C [17]: 66.3%
viability, T/C [18]: 55.2%
viability, T/C [19]: 86%
viability, T/C [20]: 110%
viability, T/C [21]: 105%
viability, T/C [22]: 104%
viability, T/C [23]: 72.7%
viability, T/C [24]: 54.2%
viability, T/C [25]: 67.6%
viability, T/C [26]: 70.7%
viability, T/C [27]: 71.7%
viability, T/C [28]: 77.5%
viability, T/C [29]: 63.6%
viability, T/C [30]: 60.8%
viability, T/C [31]: 58.2%
viability, T/C [32]: 53.3%
viability, T/C [33]: 73.5%
viability, T/C [34]: 47.7%
viability, T/C [35]: 60.6%
viability, T/C [36]: 50.2%

CC1COCCN1c1cc(C2(S(C)(=N)=O)CC2)nc(-c2ccnc3[nH]ccc23)n1 (stereo not given) + Cc1cnc(CNC(=O)c2c(=O)c3ccc(N4CCCN(C)CC4)nc3n3c2sc2ccccc23)cn1
IC50 (second compound 0.0316 µM): > 10 µM
IC50 (second compound 0.1 µM): > 10 µM
IC50 (second compound 0.316 µM): > 10 µM
IC50 (second compound 1 µM): > 10 µM
IC50 (second compound 3.16 µM): > 10 µM
IC50 (second compound 10 µM): > 10 µM
viability, T/C [1]: 102%
viability, T/C [2]: 103%
viability, T/C [3]: 95.1%
viability, T/C [4]: 80.8%
viability, T/C [5]: 71%
viability, T/C [6]: 50.7%
viability, T/C [7]: 104%
viability, T/C [8]: 102%
viability, T/C [9]: 96.2%
viability, T/C [10]: 80%
viability, T/C [11]: 67.7%
viability, T/C [12]: 53.6%
viability, T/C [13]: 91.7%
viability, T/C [14]: 98.5%
viability, T/C [15]: 99.5%
viability, T/C [16]: 96.2%
viability, T/C [17]: 77.4%
viability, T/C [18]: 61.2%
viability, T/C [19]: 83.2%
viability, T/C [20]: 92.8%
viability, T/C [21]: 103%
viability, T/C [22]: 86.3%
viability, T/C [23]: 72.8%
viability, T/C [24]: 77.6%
viability, T/C [25]: 93.9%
viability, T/C [26]: 96.6%
viability, T/C [27]: 90.2%
viability, T/C [28]: 94.7%
viability, T/C [29]: 78.1%
viability, T/C [30]: 71.6%
viability, T/C [31]: 89.7%
viability, T/C [32]: 92.3%
viability, T/C [33]: 93.1%
viability, T/C [34]: 87.7%
viability, T/C [35]: 82%
viability, T/C [36]: 64.7%

COc1ccc([C@@H](O)c2cc(-c3ncnc4cc(N5CCOCC5)ccc34)c(F)cc2Cl)nn1 + Cc1cnc(CNC(=O)c2c(=O)c3ccc(N4CCCN(C)CC4)nc3n3c2sc2ccccc23)cn1
IC50 (second compound 0.0316 µM): 1.39 µM
IC50 (second compound 0.1 µM): 2.05 µM
IC50 (second compound 0.316 µM): 3.66 µM
IC50 (second compound 1 µM): 2.36 µM
IC50 (second compound 3.16 µM): 1.94 µM
IC50 (second compound 10 µM): 1.8 µM
viability, T/C [1]: 106%
viability, T/C [2]: 82.7%
viability, T/C [3]: 78.8%
viability, T/C [4]: 47.9%
viability, T/C [5]: 41.9%
viability, T/C [6]: 35.5%
viability, T/C [7]: 94.8%
viability, T/C [8]: 87.4%
viability, T/C [9]: 68.5%
viability, T/C [10]: 57.1%
viability, T/C [11]: 47.2%
viability, T/C [12]: 39.3%
viability, T/C [13]: 97.3%
viability, T/C [14]: 85.3%
viability, T/C [15]: 72.8%
viability, T/C [16]: 60.2%
viability, T/C [17]: 54%
viability, T/C [18]: 40.4%
viability, T/C [19]: 97.3%
viability, T/C [20]: 87.4%
viability, T/C [21]: 83.4%
viability, T/C [22]: 62.8%
viability, T/C [23]: 45.1%
viability, T/C [24]: 35.5%
viability, T/C [25]: 90.9%
viability, T/C [26]: 80.1%
viability, T/C [27]: 78.5%
viability, T/C [28]: 57.6%
viability, T/C [29]: 43.6%
viability, T/C [30]: 34%
viability, T/C [31]: 81.9%
viability, T/C [32]: 78%
viability, T/C [33]: 70.3%
viability, T/C [34]: 55.9%
viability, T/C [35]: 44.1%
viability, T/C [36]: 31.6%
